Source: US12606508B2, “Cannabis extracts and uses thereof” (priority 2020, dated 2026)
pIC50, pKi: −log10 of the molar value. “Also recorded” adds a separate entry of the source. Read-outs that look alike come from different tables or passages of the source.

Legend:
C57BL6/J mice [1] = assay: Tetrad: body (rectal) temperature test; assay type: in vivo; settings: mean±SEM; for change in rectal temperature: 50 min after administration vs basal, n=4, vehicle 0.53; for change in body temperature: difference to basal temperature, n=5, vehicle 0.40
Protocol: (§1) Mice (n=4) were treated with Δ^9-THCB (10 and 20 mg/kg) or vehicle (0.9% saline and 0.05% DMSO) by intraperitoneal (i.p.) administration. Mice were evaluated for hypomotility (open field test), hypothermia (body temperature test), antinociceptive (hot plate test), and cataleptic effects (bar test), using the tetrad tests as described in the protocol by Metna-Laurent M. et al.^62 Statistical analysis was performed using the Kruskall-Wallis test and Dunn's post hoc tests.
Body temperature test. A probe was gently inserted for 1 cm into the mouse rectum after the animal had been immobilized. The probe was washed and cleaned with 70% ethanol and the dried with a paper towel. The body temperature was measured after stabilization of the value in ° C. in basal conditions and at 50 minutes after drug or vehicle administration.
(§2) Male C57BL6/J mice (7 weeks old; n=5) were treated with Δ^9-THCP (10, 5 and 2.5 mg/kg) or vehicle (1:1:18; ethanol:Kolliphor EL:0.9% saline) by i.p. administration. Mice were evaluated for hypomotility (open field test), hypothermia (body temperature), antinociceptive (hot plate test), and cataleptic (bar test) effects, using the tetrad tests^58. Statistical analysis was performed using the Kruskall-Wallis test and Dunn's post hoc tests.
Body temperature. The mouse was immobilized and the probe gently inserted for 1 cm into the rectum until stabilization of temperature. Between each mouse the probe was cleaned with 70% ethanol and dried with paper towel.

human CB2 receptor = target: T1, human CB2 receptor (Homo sapiens, UniProt P34972); assay: Radioligand binding assay at human CB2 receptor ([^3H]WIN 55212-2 displacement, Eurofins Discovery)
T1 construct: Eurofins Discovery (contract assay)
Protocol: 2.2.4 Binding affinity at human CB1 and CB2 receptors. The binding affinity of (−)-trans-Δ^9-THCB against purified human CB1 and CB2 receptors was determined in a radioligand binding assay. The capability of the ligand to displace radiolabeled [^3H]
(§3) Binding at CB1 and CB2 Receptors. The binding affinity of (−)-trans-Δ^9-THCB against human CB1 and CB2 receptors was determined in a radioligand binding assay performed by Eurofins Discovery. The compound was tested at ten concentrations, ranging from 1 nM to 30 μM, in duplicate. The compound binding was calculated as a % inhibition of the binding of a radioactively labeled ligand specific for each target. […] The results were expressed as a percent inhibition of control specific binding obtained in the presence of the tested compounds using eq. 1.
(§4) The IC50 values (concentration causing a half-maximal inhibition of control specific binding) were determined by non-linear regression analysis of the competition curves generated with mean replicate values (eq. 2)^55.
(§5) Where Y is the specific binding, A is the left asymptote of the curve, D is the right asymptote f the curve, C is the compound concentration, C50 is the IC50 value and nH is the slope factor. […] The inhibition constants (Ki) were calculated using the Cheng Prusoff equation: […]
3.1.4 Binding affinity at human CB1 and CB2 receptors. […] The binding affinity of (−)-trans-Δ^9-THCP against human CB1 and CB2 receptors was assessed by Eurofins Discovery using a radioligand binding assay. […] Eq. 1 was employed to calculate the percent inhibition of control specific binding obtained in the presence of the tested compounds. […]
Where Y is the specific binding, A is the left asymptote of the curve, D is the right asymptote f the curve, C is the compound concentration, C50 is the IC50 value and nH is the slope factor. […] The inhibition constants (Ki) were determined using the Cheng Prusoff equation (eq. 3): […]

human CB1 receptor = target: T2, human CB1 receptor (Homo sapiens, UniProt P21554); assay: Radioligand binding assay at human CB1 receptor ([^3H]CP55940 displacement, Eurofins Discovery); settings: for pKi: Cheng Prusoff from IC50, [^3H]CP55940 radioligand, read-out: hCB1 Ki; for times more active than (−)-trans-Δ^9-THCV against CB1 receptor: comparator Δ^9-THCV (Ki 75.4 nM, literature); for times more active than (−)-trans-Δ^9-THC against CB1 receptor: comparator Δ^9-THC (Ki=40 nM, literature)
T2 construct: Eurofins Discovery (contract assay)
Protocol: as §3, with “2.2.4 Binding affinity at human CB1 and CB2 receptors. The binding affinity of (−)-trans-Δ^9-THCB against purified human CB1 and CB2 receptors was determined in a radioligand binding assay. The capability of the ligand to displace radiolabeled [^3H] […] Binding” for “Binding”
as §4, §5
3.1.4 Binding affinity at human CB1 and CB2 receptors. […] The binding affinity of (−)-trans-Δ^9-THCP against human CB1 and CB2 receptors was assessed by Eurofins Discovery using a radioligand binding assay. […] Eq. 1 was employed to calculate the percent inhibition of control specific binding obtained in the presence of the tested compounds.
A non-linear regression analysis of the competition curves generated with mean replicate values (eq. 2) was used to calculate the IC50 values (concentration causing a half-maximal inhibition of control specific binding)^51.
Where Y is the specific binding, A is the left asymptote of the curve, D is the right asymptote f the curve, C is the compound concentration, C50 is the IC50 value and nH is the slope factor. […] The inhibition constants (Ki) were determined using the Cheng Prusoff equation (eq. 3):
[formula] • where L is the concentration of the radioligand, and KD is the affinity of the radioligand for the receptor.

C57BL6/J mice [2] = assay: Tetrad: bar test (catalepsy); assay type: in vivo; settings: mean±SEM
Protocol: as §1
Bar test. The bar used was a 40 cm long and 0.4 cm wide in diameter glass rod, which was horizontally elevated by 5 cm above the surface. Both forelimbs of the mouse were positioned on the bar and its hind legs on the floor of the cage, ensuring that the animal was not lying down on the floor. The chronometer was stopped when the mouse descended from the bar (i.e., when the two forepaws touched the floor) or after the 10 min cut-off time. Catalepsy was measured as the time duration each mouse held the bar by both his forelimbs (latency for moving in seconds).
as §2
Bar test. The bar test was used for the evaluation of catalepsy. Bar was a 40 cm in length and 0.4 cm in diameter glass rod, which was horizontally elevated by 5 cm above the surface. Both forelimbs of mice were positioned on the bar and its hind legs on the floor of the cage, ensuring that the mouse was not lying down on the floor. The chronometer was stopped when the mouse descends from the bar (i.e., when the two forepaws touched the floor) or when 10 min have elapsed (i.e., cut-off time). Catalepsy was measured as the time duration each mouse held the elevated bar by both his forelimbs (latency for moving in seconds).

C57BL6/J mice [3] = assay: Tetrad test, overall cannabimimetic profile; assay type: in vivo; settings: i.p.
Protocol: Tetrad test. Male C57BL6/J mice 6-8 weeks (Envigo, Italy) were housed under controlled conditions (12 h light/12 h dark cycle; temperature 20-22 C; humidity 55-60%) with chow and tap water available ad libitum. All surgeries and experimental procedures were approved by the Animal Ethics Committee of University of Campania “L. Vanvitelli,” Naples. Animal care was in compliance with Italian (D.L. 116/92) and European Commission (O.J. of E.C. L358/1 […]) regulations on the protection of laboratory animals. All efforts were made to minimize animal suffering and to reduce the number of animals used. All the experiments were performed in a randomized manner by the same operator blind to pharmacological treatments.
as §1, §2

T2 sequence (P21554 whole entry): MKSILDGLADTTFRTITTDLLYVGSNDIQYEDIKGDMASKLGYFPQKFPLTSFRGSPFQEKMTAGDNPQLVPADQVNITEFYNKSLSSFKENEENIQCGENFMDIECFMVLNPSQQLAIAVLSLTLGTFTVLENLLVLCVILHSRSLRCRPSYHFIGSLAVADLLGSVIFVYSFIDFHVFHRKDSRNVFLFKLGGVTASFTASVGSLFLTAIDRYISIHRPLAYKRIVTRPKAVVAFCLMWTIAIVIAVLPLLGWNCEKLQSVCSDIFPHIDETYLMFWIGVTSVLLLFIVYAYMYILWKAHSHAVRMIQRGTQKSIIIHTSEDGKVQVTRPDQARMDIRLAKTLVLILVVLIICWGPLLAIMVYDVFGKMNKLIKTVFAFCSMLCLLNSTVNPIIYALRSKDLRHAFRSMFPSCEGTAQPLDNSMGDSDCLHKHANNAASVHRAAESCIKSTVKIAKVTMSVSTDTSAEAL
T1 sequence (P34972 whole entry): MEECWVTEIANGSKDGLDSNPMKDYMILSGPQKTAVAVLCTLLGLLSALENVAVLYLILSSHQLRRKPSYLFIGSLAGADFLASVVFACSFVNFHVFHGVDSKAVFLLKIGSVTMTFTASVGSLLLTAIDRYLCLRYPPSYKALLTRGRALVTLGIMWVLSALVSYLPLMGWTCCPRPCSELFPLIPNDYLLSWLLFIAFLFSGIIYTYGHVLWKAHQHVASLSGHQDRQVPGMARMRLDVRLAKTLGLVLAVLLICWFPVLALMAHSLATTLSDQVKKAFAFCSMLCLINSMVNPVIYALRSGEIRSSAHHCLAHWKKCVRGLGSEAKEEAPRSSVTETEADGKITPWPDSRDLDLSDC

CCCCc1cc(O)c2c(c1)OC(C)(C)[C@@H]1CCC(C)=C[C@@H]21 [Δ^9-THCB, (6aR,10aR)-3-butyl-6,6,9-trimethyl-6a,7,8,10a-tetrahydro-6H-benzo[c]chromen-1-ol]
change in rectal temperature (C57BL6/J mice [1]; Δ^9-THCB 10 mg/kg i.p.): −0.28 °C
change in rectal temperature (C57BL6/J mice [1]; Δ^9-THCB 20 mg/kg i.p.): 0.40 °C
pKi (human CB2 receptor; Cheng Prusoff from IC50, [^3H]WIN 55212-2 radioligand, read-out: hCB2 Ki): 7.29
pIC50 (human CB2 receptor; displacement of [^3H]WIN 55212-2, ten concentrations 1 nM to 30 μM, duplicate, SD within ±10%, read-out: hCB2 IC50): 7.10
pKi (human CB1 receptor): 7.82
pIC50 (human CB1 receptor; displacement of [^3H]CP55940, ten concentrations 1 nM to 30 μM, duplicate, SD within ±10%, read-out: hCB1 IC50): 7.55
times more active than (−)-trans-Δ^9-THCV against CB1 receptor (human CB1 receptor; ratio of Ki): five times more active
bar test: latency for moving from the catalepsy bar (C57BL6/J mice [2]; Δ^9-THCB 10 mg/kg i.p., n=4, vehicle 3.50): 3.0 s
bar test: latency for moving from the catalepsy bar (C57BL6/J mice [2]; Δ^9-THCB 20 mg/kg i.p., n=4, vehicle 3.50): 13.0 s
cannabimimetic profile in the tetrad test (in words) (C57BL6/J mice [3]): partial agonistic activity; also recorded: partial agonist for CB1 receptor

CCCCCCCc1cc(O)c2c(c1)OC(C)(C)[C@@H]1CCC(C)=C[C@@H]21 [Δ^9-THCP, (6aR,10aR)-3-heptyl-6,6,9-trimethyl-6a,7,8,10a-tetrahydro-6H-benzo[c]chromen-1-ol]
change in body temperature (C57BL6/J mice [1]; Δ^9-THCP 2.5 mg/kg i.p.): −4.12 °C
change in body temperature (C57BL6/J mice [1]; Δ^9-THCP 5 mg/kg i.p.): −5.28 °C
change in body temperature (C57BL6/J mice [1]; Δ^9-THCP 10 mg/kg i.p.): −7.10 °C
pKi (human CB2 receptor): 8.21
pKi (human CB1 receptor): 8.92
binding affinity to CB1 among the compounds (in words) (human CB1 receptor; comparison of alkyl chain homologues): highest binding affinity to CB1
times more active than (−)-trans-Δ^9-THC against CB1 receptor (human CB1 receptor; ratio of Ki): more than thirty-fold higher
times more active than (−)-trans-Δ^9-THC against CB1 receptor (human CB1 receptor; ratio of Ki, listed as (−)-trans-Δ^9-THCP): 33 times
times more active than (−)-trans-Δ^9-THCB against CB1 receptor (human CB1 receptor; ratio of Ki, comparator Δ^9-THCB (Ki 15 nM)): 13 times
times more active than (−)-trans-Δ^9-THCV against CB1 receptor (human CB1 receptor; ratio of Ki): 63 times
bar test: latency for moving from the catalepsy bar (C57BL6/J mice [2]; Δ^9-THCP 2.5 mg/kg i.p., 10 min cut-off, n=5, vehicle 15.20): 346.1 s
bar test: latency for moving from the catalepsy bar (C57BL6/J mice [2]; Δ^9-THCP 5 mg/kg i.p., 10 min cut-off, n=5, vehicle 15.20): 493.4 s
bar test: latency for moving from the catalepsy bar (C57BL6/J mice [2]; Δ^9-THCP 10 mg/kg i.p., 10 min cut-off, n=5, vehicle 15.20): 484.5 s
cannabimimetic profile in the tetrad test (in words) (C57BL6/J mice [3]): THC-like cannabimimetic activity; also recorded: miming the properties of full CB1 receptor agonists
dose at which active in three of the four tetrad tests (C57BL6/J mice [3]): 5 mg/kg
